Where two headings read alike, the source gives them in different places.
What was measured:
[1] = Stability test in liver microsomes (rat); type: in vitro ADME; details: for stability in rat & mouse liver microsomes compared with the reference GDC-0853: 30 minutes; for RLM (percentage of the remaining compound after 30 minutes of incubation): rat liver microsomes 0.5 mg/mL, compound 1 μM, 37° C.
From the text: (§1) Example 5 Stability Test in Liver Microsomes
(§2) Both male CD-1 mouse pooled liver microsomes and male SD rat pooled liver microsomes were purchased from BioreclamationIVT Corporation, USA.
(§3) Phenacetin, glucose-6-phosphate dehydrogenase (G-6-PDH) and nicotinamide adenine dinucleotide phosphate (NADP) were all purchased from Sigma-Aldrich Corporation, USA. Glucose-6-phosphate (G-6-P) was purchased from Shanghai Eybridge Chemical Technology Co., Ltd.
(§4) Ten mM test compound stock solution: a certain amount of test compound was weighed, and dissolved with an appropriate volume of DMSO to prepare a stock solution with a concentration of 10 mM for use.
(§5) Reaction stopping solution: an appropriate amount of internal standard compound phenacetin was dissolved in acetonitrile to prepare a reaction stopping solution with a concentration of 1000 ng/mL for use at room temperature.
(§6) The test compound stock solution was diluted with an organic solvent (usually a mixture of acetonitrile, methanol and water with various ratios, depending on the solubility of the compound, if necessary, 1 N hydrochloric acid or 1 N sodium hydroxide would be added to facilitate solubilization) to the 0.1 mM (the final concentration of the compound in the reaction system was 1 μM) and the concentration percentage of the organic solvents in the incubation system no more than 1% (wherein the percentage of DMSO was required to be no more than 0.1%). An appropriate amount of 100 mM NADP, 500 mM G-6-P and 100 Unit/mL G-6-PDH were mixed and diluted with ultrapure water (the final system contains 1 mM NADP, 5 mM G-6-P and 1 Unit/mL G-6-PDH), pre-incubated in a 37° C. water bath for 10 minutes and then placed on ice for use as a NADPH regeneration solution. 20 mg/mL liver microsomes solution and 200 mM phosphate buffer was mixed, and diluted with ultrapure water to give a liver microsomes solution containing 2.5 mg/mL liver microsomes (the final concentration of the reaction system is 0.5 mg/mL) and 50 mM phosphate buffer. The diluted liver microsomes solution was mixed with 0.1 mM compound solution, a mixture of 100 mM EDTA, 300 mM MgCl2 solution, 200 mM phosphate buffer (the final system was 3 mM MgCl2, 1 mM EDTA and 50 mM phosphate buffer) and water in an appropriate volume was added. Finally, the NADPH regeneration solution was added, then the reaction solution was placed in a 37° C. water bath to start the reaction (the reaction time was 30 minutes), and the reaction was stopped by adding the ice-cold acetonitrile reaction stopping solution containing the internal standard. The 0-minute sample was not incubated in a 37° C. water bath, and its difference from the 30-minute sample further lies in that the ice-cold acetonitrile reaction stopping solution containing the internal standard was added first, and then the NADPH regeneration solution was added. The sample added with the reaction stopping internal standard solution was vortexed and mixed well, and then centrifuged at 4400 rpm for 10 minutes. The supernatant was taken and diluted ten times with 50% methanol for LC-MS/MS analysis.
(§7) LC-MS/MS was used to determine the concentration of the compound in the sample. The percentage of the remaining compound after 30 minutes of incubation comparing with that in the 0-minute sample was calculated using the peak area ratio of the compound to the internal standard as an indicator, to evaluate the metabolic stability of the compound.
(§8) Instrument: API4500, API4000 or LTQ Mass Spectrometer; the liquid phase is UHPLC system (Shimadzu LC-30 AD, model Nexra X2) including liquid delivery unit, column thermostat, detector and autosampler; or Agilent 1200 Binary Pump series HPLC and CTC Autosampler.
(§9) Chromatographic column: Waters XSELECT Hss T3 C18 (2.5 μm, 2.1×50 mm) or […] (5 μm, 2.0×50 mm)
(§10) A: water with 0.1% FA (formic acid) (with or without 0.1% ACN (acetonitrile))
(§11) B: acetonitrile with 0.1% FA (formic acid).

[2] = Stability test in liver microsomes (mouse); type: in vitro ADME; details: mouse liver microsomes 0.5 mg/mL, compound 1 μM, 37° C.
From the text: as §1, §2, §3, §4, §5, §6, §7, §8, §9, §10, §11

[3] = Study on in vivo pharmacokinetics in mice; details: 10 mg/kg
From the text: Example 6 Study on In Vivo Pharmacokinetics in Mice
Solutol HS15 was purchased from BASF, Germany, ethanol (anhydrous) was purchased from Nanjing Chemical Reagent Co., Ltd., physiological saline was purchased from Huayu (Wuxi) Pharmaceutical Co., Ltd., dimethyl sulfoxide (DMSO) and sodium carboxymethyl cellulose 800-1200 (CMC-Na) were purchased from Sinopharm Chemical Reagent Co., Ltd.
Preparation of ethanol/Solutol mixed solution (1:1, v/v): taking an appropriate amount of Solutol HS15 in a centrifuge tube and placing in a 37° C. water bath until dissolved, placing on the bench top to room temperature, taking 1 mL of Solutol in a centrifuge tube containing 1 mL of ethanol and mixing well to obtain the mixed solution.
Taking an appropriate amount of stock solution and placing in a blank centrifuge tube, adding an appropriate amount of ethanol/Solutol mixed solution prepared in advance, vortexing, then adding an appropriate amount of physiological saline, and mixing well until a transparent liquid.
3. Administration to Animals and Sample Collection:
Male ICR mice were purchased from Shanghai Lingchang Biotechnology Co., Ltd. 18 mice were randomly divided into intravenous administration group and intragastric administration group. The mice were fasted overnight before administration. The mice were withheld food but allowed to access water freely within 4 hours after administration, and allowed to freely access food and water after 4 hours. After anesthesia with isoflurane, blood was collected from the retroorbital venous plexus and placing in an centrifuge tube containing anticoagulant, and the centrifuge tube was stored in an box containing wet ice until the plasma was centrifuged.
The plasma samples were pre-treated and then analyzed by liquid chromatography-tandem mass spectrometry (LC-MS/MS), the instrument model was API5500. The analytical chromatographic column was Waters XSELECT HSS T3 C18 column (50×2.1 mm, 2.5 μm). In the mobile phases, deionized water containing 0.1% formic acid and 0.1% acetonitrile was used as the aqueous phase and acetonitrile containing 0.1% formic acid was used as the organic phase. The concentrations of the compound in the samples were determined as follows. Firstly, a standard curve was established, and the peak area ratios of the compound 19 to the internal standard in the standard curve were used as indexes. The theoretical concentrations of compound 19 and the peak area ratios of compound 19 to the internal standard were fitted with a quadratic regression equation to obtain the regression equation. The sample concentrations were calculated by measuring the peak area ratio of the compound of the test sample to the internal standard according to the standard curve.

[4] = mouse, male ICR mice, oral (intragastric) administration, plasma

Compound | RLM (percentage of the remaining compound after 30 minutes of incubation) [1] [%] | MLM (percentage of the remaining compound after 30 minutes of incubation) [2] [%] | stability in rat & mouse liver microsomes compared with the reference GDC-0853 [1] | further results
C[C@H]1CN(C2COC2)CCN1c1ccc(Nc2cc(-c3ccnc(-n4ccn5c6c(cc5c4=O)CC(C)(C)C6)c3CO)cn(C)c2=O)nc1 [Compound 19] | 92.7 | 91.8 | better than that of the reference GDC-0853 | Cmax ([3]; male ICR mice, oral (intragastric) administration, plasma): 3807 ng/mL; C8 h (plasma concentration at 8 h) ([3]; male ICR mice, oral (intragastric) administration, plasma, 8 h): 555 ng/mL; C24 h (plasma concentration at 24 h) ([3]; male ICR mice, oral (intragastric) administration, plasma, 24 h): 8.5 ng/mL; plasma exposure (AUC0-∞) relative to the reference GDC-0853 ([3]; mice, oral administration): about 1.7 times; plasma concentration at 8 h relative to GDC-0853 ([3]; mice, oral administration, 8 h): about 3.9 folds; AUC(0-inf) [3, 4]: 17800 ng·h/mL; half-life [3, 4]: 2.7 h; Cmax ([3]; mouse, male ICR mice, oral (intragastric) administration, plasma, read-out: Cmax): 3810 ng/mL
C[C@H]1CN(C2COC2)CCN1c1cnc(Nc2cc(-c3ccnc(-n4ccn5c6c(cc5c4=O)CC(C)(C)C6)c3CO)cn(C)c2=O)nc1 [Compound 44] | 97.1 | 93.1 | better than that of the reference GDC-0853 | –
C[C@H]1CN(C2COC2)CCN1c1ccc(Nc2cc(-c3ccnc(-n4ccn5c6c(cc5c4=O)CC(C)(C)C6)c3CO)nn(C)c2=O)nc1 [Compound 22] | 95.6 | 83.4 | better than that of the reference GDC-0853 | –
C[C@H]1CN(C2COC2)CCN1c1ccc(Nc2cc(-c3ccnc(-n4ccn5c6c(cc5c4=O)CCC(F)(F)C6)c3CO)cn(C)c2=O)nc1 [Compound 56] | 93.7 | 89.5 | better than that of the reference GDC-0853 | –
Cn1cc(-c2ccnc(-n3ccn4c5c(cc4c3=O)CC(C)(C)C5)c2CO)cc(Nc2ccc(N3CCN(C4COC4)CC3)cn2)c1=O [Compound 9] | 89.5 | 95.7 | better than that of the reference GDC-0853 | –
C[C@@H]1CN(c2ccc(Nc3cc(-c4ccnc(-n5ccn6c7c(cc6c5=O)CCC7)c4CO)cn(C)c3=O)nc2)[C@@H](C)CN1C1COC1 [Compound 2, 2-(5-((5-((2S,5R)-2,5-dimethyl-4-(oxetan-3-yl)piperazin-1-yl)pyridin-2-yl)amino)-3′-(hydroxymethyl)-1-methyl-6-oxo-1,6-dihydro-[3,4′-bispyridin]-2′-yl)-7,8-dihydro-2H-cyclopenta[4,5]pyrrolo[1,2-a]pyrazin-1(6H)-one] | 98.9 | 90.5 | better than that of the reference GDC-0853 | –

Second part, led by results:

RLM (percentage of the remaining compound after 30 minutes of incubation) [1] [%] | MLM (percentage of the remaining compound after 30 minutes of incubation) [2] [%] | Compound | stability in rat & mouse liver microsomes compared with the reference GDC-0853 [1] | further results
89.6 | 85.8 | C[C@H]1CN(C2COC2)CCN1c1ccc(Nc2cc(-c3ccnc(-n4cnn5c6c(cc5c4=O)CC(C)(C)C6)c3CO)cn(C)c2=O)nc1 [Compound 63] | better than that of the reference GDC-0853 | –
~100 | 97.1 | C[C@H]1CN(C2COC2)CCN1c1ccc(Nc2cc(-c3ccnc(-n4ccn5c6c(cc5c4=O)CC(F)(F)CC6)c3CO)cn(C)c2=O)nc1 [Compound 58] | better than that of the reference GDC-0853 | –
84.0 | 83.0 | C[C@H]1CN(C2COC2)CCN1c1ccc(Nc2cc(-c3ccnc(-n4ccn5c(cc6cc(F)ccc65)c4=O)c3CO)cn(C)c2=O)nc1 [Compound 75] | better than that of the reference GDC-0853 | –
92.1 | 95.6 | C[C@H]1CN(C2COC2)CCN1c1ccc(Nc2cc(-c3ccnc(-n4ccn5c6c(cc5c4=O)CCC6)c3CO)cn(C)c2=O)nc1 [Compound 64] | better than that of the reference GDC-0853 | –
91.8 | 83.4 | CC1CCc2cc3c(=O)n(-c4nccc(-c5cc(Nc6ccc(N7CCN(C8COC8)C[C@@H]7C)cn6)c(=O)n(C)c5)c4CO)ccn3c2C1 (mixture of isomers) [Compound 78] | better than that of the reference GDC-0853 | –
~100 | ~100 | C[C@H]1CN(C2COC2)CCN1c1ccc(Nc2cc(-c3ccnc(-n4ncn5c6c(cc5c4=O)CC(C)(C)C6)c3CO)cn(C)c2=O)nc1 [Compound 79] | better than that of the reference GDC-0853 | –
87.7 | 97.5 | C[C@H]1CN(C2COC2)CCN1c1ccc(Nc2cc(-c3ccnc(-n4ccn5c(cc6ccccc65)c4=O)c3CO)cn(C)c2=O)nc1 [Compound 74] | better than that of the reference GDC-0853 | –

— patent US11478474B2, “2-(3′-(hydroxymethyl)-1-methyl-5-((5-(2-methyl-4-(oxetan-3-yl)piperazin-1-yl)pyridin-2-yl)amino)-6-oxo-1,6-dihydro-[3,4′-bipyridin]-2′-yl)-7,7-dimethyl-7,8-dihydro-2H-cyclopenta[4,5]pyrrolo[1,2-a]pyrazin-1(6H)-one as a BTK inhibitor” (HUTCHISON MEDIPHARMA LIMITED, priority 2020, dated 2022)
